The values below come from patent EP4578856A1, “HETEROCYCLIC COMPOUND” (Ubience Inc., priority 2022, dated 2024).

For assay [1], the target named is T1, ROCK2 protein (Homo sapiens, UniProt O75116). Description: ROCK2 kinase inhibitory activity, mobility shift assay (MSA, Carna Biosciences). The class given is biochemical. As to conditions: read-out: ROCK2 inhibition rate; for inhibition at 1 µM: evaluation concentration 1 µM; for inhibition at 0.03 µM: evaluation concentration 0.03 µM; for inhibition at 10 µM: evaluation concentration 10 µM. Further details: GST (N); purchased Carna Biosciences, Inc; host or cells: baculovirus expression system. Here is the method:
The ROCK2 kinase inhibitory activity was measured using a mobility shift assay (MSA) provided by Carna Biosciences, Inc.
The test compound was dissolved in DMSO and further diluted with DMSO to prepare a solution having a concentration 100 times the evaluation concentration. The solution was further diluted 25 times with an assay buffer (20 mmol/L HEPES, 0.01% Triton (registered trademark) X-100, 1 mmol/L DTT, pH 7.5) to obtain a test compound solution.
The human ROCK2 kinase was expressed by fusing the catalytic domain (1 to 553 amino acids of Accession No. NP_004841.2) with GST at the N-terminus using the baculovirus expression system. GST-ROCK2 was purified by glutathione sepharose chromatography.
A 4-fold concentration substrate (LIMKtide, 1000 nmol/L) /ATP (5 µmol/L)/metal solution (Mg, 5 mmol/L) was prepared with kit buffer (20 mmol/L HEPES, 0.01% Triton (registered trademark) X-100, 5 mmol/L DTT, pH 7.5). A 2-fold concentration kinase solution was prepared with assay buffer. 5 µL of a 4-fold concentration test compound solution, 5 µL of a 4-fold concentration substrate/ATP/metal solution, and 10 µL of a 2-fold concentration kinase solution were mixed in a well of a polypropylene 384 well plate, and the mixture was reacted at room temperature for 1 hour. 70 µL of termination buffer (127 mmol/L HEPES, 0.01% Triton (registered trademark) X-100, 26.7 mmol/L EDTA-2Na, 1% DMSO, pH 7.5) was added to stop the reaction. The substrate peptide and the phosphorylated peptide in the reaction solution were separated and quantified using a LabChip (trademark) system (Perkin Elmer).
The kinase reaction was evaluated by the product ratio (P/(P + S)) calculated from the substrate peptide peak height (S) and the phosphorylated peptide peak height (P).
The average signal of the control well including all the reaction components was set to 0% suppression, the average signal of the background well (no enzyme added) was set to 100% suppression, and the inhibition rate was calculated from the average signal of the test compound test well.
The ROCK2 inhibition rate and the evaluation concentration of the test compound are shown in Table 4-1, and the IC50 value of the inhibitory activity is shown in Table 4-2. […]
Target sequence in this assay (O75116 1-553): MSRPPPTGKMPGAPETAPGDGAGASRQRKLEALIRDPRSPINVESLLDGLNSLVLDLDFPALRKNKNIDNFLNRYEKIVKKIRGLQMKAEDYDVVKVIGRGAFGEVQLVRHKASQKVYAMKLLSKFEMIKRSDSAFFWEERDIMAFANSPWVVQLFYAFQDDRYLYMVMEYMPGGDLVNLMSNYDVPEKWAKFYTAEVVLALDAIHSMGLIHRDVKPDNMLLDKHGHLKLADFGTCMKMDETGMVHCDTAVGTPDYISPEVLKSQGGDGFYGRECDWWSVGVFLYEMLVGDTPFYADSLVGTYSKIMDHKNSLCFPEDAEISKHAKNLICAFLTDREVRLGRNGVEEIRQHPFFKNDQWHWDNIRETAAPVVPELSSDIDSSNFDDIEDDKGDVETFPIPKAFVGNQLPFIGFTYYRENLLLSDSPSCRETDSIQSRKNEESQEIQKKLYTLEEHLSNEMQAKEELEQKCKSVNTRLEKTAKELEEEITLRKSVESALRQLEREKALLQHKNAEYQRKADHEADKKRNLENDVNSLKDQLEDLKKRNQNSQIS

Assay [2] deals with T1, ROCK2 protein. Description: Degradation inducing activity of ROCK2 protein in HUVEC cells, Western blotting (Simple Western JESS). Type of assay: cell-based. More on the design: endogenous in cells; host or cells: HUVEC (ATCC CRL-1730). Conditions: HUVEC, 24 h; for inhibition at 1 µM: degradation rate at 1 µM; for inhibition at 10 µM: degradation rate at 10 µM. In a few lines:
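HUVEC cells treated 24 h with compound at 10 µM or 1 µM, then lysed; ROCK2 quantified by capillary Western (Simple Western JESS) using rabbit mAb D1B1, normalized to total loaded protein. Degradation rate (%) calculated relative to DMSO control set at 100%, binned A ≥75%, B 50–75%, C 25–50%, D <25%.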
Target sequence in this assay (O75116 whole entry): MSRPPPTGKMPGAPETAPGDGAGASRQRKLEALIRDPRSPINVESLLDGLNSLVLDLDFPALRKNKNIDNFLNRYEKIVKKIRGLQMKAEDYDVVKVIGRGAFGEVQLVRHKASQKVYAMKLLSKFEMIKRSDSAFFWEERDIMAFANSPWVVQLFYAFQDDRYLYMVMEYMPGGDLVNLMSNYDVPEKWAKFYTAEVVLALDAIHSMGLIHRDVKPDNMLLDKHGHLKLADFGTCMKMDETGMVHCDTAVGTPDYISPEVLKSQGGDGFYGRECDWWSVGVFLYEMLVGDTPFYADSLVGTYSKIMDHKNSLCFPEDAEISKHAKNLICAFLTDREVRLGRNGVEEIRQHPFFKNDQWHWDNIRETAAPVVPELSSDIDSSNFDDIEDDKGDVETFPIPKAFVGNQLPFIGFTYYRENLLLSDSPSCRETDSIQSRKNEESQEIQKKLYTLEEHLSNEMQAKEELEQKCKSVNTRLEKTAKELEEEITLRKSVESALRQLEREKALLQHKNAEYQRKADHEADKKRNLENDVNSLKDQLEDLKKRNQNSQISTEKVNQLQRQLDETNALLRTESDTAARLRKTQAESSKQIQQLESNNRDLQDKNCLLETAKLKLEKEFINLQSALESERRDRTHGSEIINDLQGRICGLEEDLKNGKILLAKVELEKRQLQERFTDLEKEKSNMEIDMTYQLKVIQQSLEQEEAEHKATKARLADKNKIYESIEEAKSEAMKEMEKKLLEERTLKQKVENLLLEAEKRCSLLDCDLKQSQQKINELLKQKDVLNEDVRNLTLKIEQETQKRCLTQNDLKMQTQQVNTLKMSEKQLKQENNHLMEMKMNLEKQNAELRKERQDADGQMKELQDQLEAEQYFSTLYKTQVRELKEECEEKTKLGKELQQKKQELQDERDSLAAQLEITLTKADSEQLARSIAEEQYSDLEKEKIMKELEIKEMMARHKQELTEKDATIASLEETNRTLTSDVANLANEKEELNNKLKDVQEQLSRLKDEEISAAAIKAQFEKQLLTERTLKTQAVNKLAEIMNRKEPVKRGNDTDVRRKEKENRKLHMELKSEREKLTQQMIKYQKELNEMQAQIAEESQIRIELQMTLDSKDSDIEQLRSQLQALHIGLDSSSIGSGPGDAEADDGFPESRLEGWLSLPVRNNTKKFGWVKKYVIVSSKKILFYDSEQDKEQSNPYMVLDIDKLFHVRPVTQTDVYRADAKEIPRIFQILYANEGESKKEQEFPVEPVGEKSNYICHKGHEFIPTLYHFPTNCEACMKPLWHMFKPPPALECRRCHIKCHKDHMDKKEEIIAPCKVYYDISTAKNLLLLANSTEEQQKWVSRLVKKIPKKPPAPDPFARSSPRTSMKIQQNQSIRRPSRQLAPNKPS
For orientation: Immunoblotting shows a protein as a band on a membrane.

Structures are written as SMILES.

As for `COC[C@H]1CN[C@H](C)CN1CC(=O)N1CC(C)(C)c2ncc(Cc3cccc(OCCOCCOCCOCCOCCOCCOCCOCCN[C@H](Cc4cccc(F)c4)C(=O)Nc4ccc(-c5ccncc5)cc4)c3)cc21` [Example 56, (R)-2-(3-Fluorobenzyl)-26-(3-((1-(2-((2R,5R)-2-(methoxymethyl)-5-methylpiperazin-1-yl)acetyl)-3,3-dimethyl-2,3-dihydro-1H-pyrrolo[3,2-b]pyridin-6-yl)methyl)phenoxy)-N-(4-(pyridin-4-yl)phenyl)-6,9,12,15,18,21,24-heptaoxa-3-azahexacosanamide], the inhibition at 1 µM on ROCK2 protein [1] was less than 25%; against ROCK2 protein [2] it was 50 to 75%. The same compound returned an inhibition at 10 µM against ROCK2 protein [2] of 50 to 75%.

In the case of `COC[C@H]1CN[C@H](C)CN1CC(=O)N1CC(C)(C)c2ncc(Cc3ccccc3OCCOCCOCCOCCNC[C@@H](C(=O)Nc3ccc4cnccc4c3)c3ccccc3)cc21` [Example 80, (S)-N-(Isoquinolin-6-yl)-1-(2-((1-(2-((2R,5R)-2-(methoxymethyl)-5-methylpiperazin-1-yl)acetyl)-3,3-dimethyl-2,3-dihydro-1H-pyrrolo[3,2-b]pyridin-6-yl)methyl)phenoxy)-14-phenyl-3,6,9-trioxa-12-azapentadecan-15-amide], on ROCK2 protein [1], the inhibition at 0.03 µM lay in the range of 25 to 50%. Besides, on ROCK2 protein [2], the inhibition at 1 µM fell in the range of 50 to 75% and the inhibition at 10 µM was no less than 75%.

In the case of `COC[C@H]1CN[C@H](C)CN1CC(=O)N1CC(C)(C)c2nc(CN(C)CCOCCOCCOCCN[C@H](C)c3ccc(C(=O)Nc4ccncc4)cc3)c(Cc3ccc(F)cc3)cc21` [Example 24, 4-((R)-1-(6-(4-Fluorobenzyl)-1-(2-((2R,5R)-2-(methoxymethyl)-5-methylpiperazin-1-yl)acetyl)-3,3-dimethyl-2,3-dihydro-1H-pyrrolo[3,2-b]pyridin-5-yl)-2-methyl-5,8,11-trioxa-2,14-diazahexadecan-15-yl)-N-(pyridin-4-yl)benzamide], on ROCK2 protein [1], the inhibition at 10 µM is no less than 75%. For the same compound, on ROCK2 protein [2], the inhibition at 1 µM was no less than 75% and the inhibition at 10 µM lay in the range of 50 to 75%.

With `COC[C@H]1CN[C@H](C)CN1CC(=O)N1CC(C)(C)c2ncc(Cc3cccc(OCCOCCOCCOCCOCCOCCOCCN[C@H](C)c4ccc(C(=O)Nc5ccncc5)cc4)c3)cc21` [Example 48, 4-((R)-23-(3-((1-(2-((2R,5R)-2-(Methoxymethyl)-5-methylpiperazin-1-yl)acetyl)-3,3-dimethyl-2,3-dihydro-1H-pyrrolo[3,2-b]pyridin-6-yl)methyl)phenoxy)-6,9,12,15,18,21-hexaoxa-3-azatricosan-2-yl)-N-(pyridin-4-yl)benzamide], the inhibition at 10 µM on ROCK2 protein [1] was no less than 75%. Moreover, on ROCK2 protein [2], the inhibition at 1 µM fell in the range of 50 to 75% and the inhibition at 10 µM was 50 to 75%.

As to `C[C@@H]1CN(CC(=O)N2CC(C)(C)c3ncc(Cc4ccc(F)cc4)cc32)[C@@H](CN(C)CCOCCOCCN[C@H](Cc2cccc(F)c2)C(=O)Nc2ccc(-c3ccncc3)cc2)CN1` [Example 9, (R)-12-(3-Fluorobenzyl)-1-((2R,5R)-1-(2-(6-(4-fluorobenzyl)-3,3-dimethyl-2,3-dihydro-1H-pyrrolo[3,2-b]pyridin-1-yl)-2-oxoethyl)-5-methylpiperazin-2-yl)-2-methyl-N-(4-(pyridin-4-yl)phenyl)-5,8-dioxa-2,11-diazatridecan-13-amide], the inhibition at 1 µM at ROCK2 protein [1] lay within 25 to 50%. Further, at ROCK2 protein [2], the inhibition at 1 µM was less than 25% and the inhibition at 10 µM is no less than 75%.

As for `COC[C@H]1CN[C@H](C)CN1CC(=O)N1CC(C)(C)c2nc(CN(C)CCOCCNC[C@@H](C(=O)Nc3ccc4cnccc4c3)c3ccccc3)c(Cc3ccc(F)cc3)cc21` [Example 36, (S)-3-((2-(2-(((6-(4-Fluorobenzyl)-1-(2-((2R,5R)-2-(methoxymethyl)-5-methylpiperazin-1-yl)acetyl)-3,3-dimethyl-2,3-dihydro-1H-pyrrolo[3,2-b]pyridin-5-yl)methyl)(methyl)amino)ethoxy)ethyl)amino)-N-(isoquinolin-6-yl)-2-phenylpropanamide], at ROCK2 protein [1], the inhibition at 0.03 µM fell in the range of 50 to 75%. On ROCK2 protein [2], this compound had an inhibition at 1 µM of 25 to 50% and an inhibition at 10 µM of no less than 75%.

For the compound `C[C@@H]1CN(CC(=O)N2CC(C)(C)c3ncc(Cc4ccc(F)cc4)cc32)[C@@H](CN(C)CCOCCOCCOCCN[C@H](C)c2ccc(C(=O)Nc3ccncc3)cc2)CN1` [Example 3, 4-((R)-1-((2R,5R)-1-(2-(6-(4-Fluorobenzyl)-3,3-dimethyl-2,3-dihydro-1H-pyrrolo[3,2-b]pyridin-1-yl)-2-oxoethyl)-5-methylpiperazin-2-yl)-2-methyl-5,8,11-trioxa-2,14-diazahexadecan-15-yl)-N-(pyridin-4-yl)benzamide], the inhibition at 10 µM at ROCK2 protein [1] was no less than 75%. At ROCK2 protein [2], this compound returned an inhibition at 1 µM of 50 to 75% and an inhibition at 10 µM of no less than 75%.

Take `C[C@@H]1CN(CC(=O)N2CC(C)(C)c3ncc(Cc4ccc(F)cc4)cc32)[C@@H](CN(C)CCOCCOCCNC[C@@H](C(=O)Nc2ccc3cnccc3c2)c2ccccc2)CN1` [Example 16, (S)-1-((2R,5R)-1-(2-(6-(4-Fluorobenzyl)-3,3-dimethyl-2,3-dihydro-1H-pyrrolo[3,2-b]pyridin-1-yl)-2-oxoethyl)-5-methylpiperazin-2-yl)-N-(isoquinolin-6-yl)-2-methyl-13-phenyl-5,8-dioxa-2,11-diazatetradecan-14-amide]: the inhibition at 0.03 µM at ROCK2 protein [1] was in the range of 50 to 75%. On ROCK2 protein [2], this compound gave an inhibition at 1 µM of 25 to 50% and an inhibition at 10 µM of no less than 75%.

As to `COC[C@H]1CN[C@H](C)CN1CC(=O)N1CC(C)(C)c2nc(CN(C)CCOCCOCCOCCN[C@H](Cc3cccc(F)c3)C(=O)Nc3ccc(-c4ccncc4)cc3)c(Cc3ccc(F)cc3)cc21` [Example 31, (R)-15-(3-Fluorobenzyl)-1-(6-(4-fluorobenzyl)-1-(2-((2R,5R)-2-(methoxymethyl)-5-methylpiperazin-1-yl)acetyl)-3,3-dimethyl-2,3-dihydro-1H-pyrrolo[3,2-b]pyridin-5-yl)-2-methyl-N-(4-(pyridin-4-yl)phenyl)-5,8,11-trioxa-2,14-diazahexadecan-16-amide], the inhibition at 1 µM was in the range of 25 to 50% on ROCK2 protein [1] and 50 to 75% at ROCK2 protein [2]. Also, the inhibition at 10 µM on ROCK2 protein [2] lay in the range of 50 to 75%.

One may read the inhibition as how much of the control response was suppressed.
